{"source": "patent US20010051646A1", "about": "“Method for the improvement of islet signaling in diabetes mellitus and for its prevention” (priority 2000, published 2001)", "format_in_all_cases": "in vivo, rat", "key": {"[1]": {"tested_on": "Male Zucker fa/fa rats", "assay": "Repeated once-daily oral dosing: morning blood glucose and plasma insulin", "description": "The parameters monitored were morning blood glucose and plasma insulin levels. In a day-night profile, glycemia and insulinaemia were monitored from day 16 to day 17. An OGTT was performed finally on day 21 to monitor blood glucose and plasma insulin kinetics to assess changes in glucose tolerance. Glibenclamide (DAB 1996; R011150/33372) was donated by Berlin-Chemie (Berlin, Germany). Male Zucker (fa/fa) rats of the body weight class of 300 g were purchased from Charles River (Sulzfeld, Germany).\nHousing Conditions: Animals were kept single-housed under conventional conditions with controlled temperature (22±2° C.) on a 12/12 hours light/dark cycle (light on at 06:00 a.m.). Standard pellets (ssniff®, Soest, Germany) and tap water acidified with HCl were allowed ad libitum.\nCatheterization of Carotid Artery: After one week of adaptation carotid catheters were implanted in the rats under general anesthesia (injection of 0.25 ml/kg i.p. Rompun® [2%], Bayer, Germany) and 0.5 ml/kg i.p. Velonarkon® (Arzneimittelwerk Dresden, Germany). The animals were allowed to recover for one week. The catheter was flushed with heparin-saline (100 IU/ml) three times per week.\nThereafter, the non-diabetic Wistar rats were treated orally once daily with RP (5 mg/kg b.w.) or TP (21.61 mg/kg b.w.) and the diabetic Zucker rats were treated orally once daily with RP (1 mg/kg b.w.) or TP (21.61 mg/kg b.w.) for 21 days at 05.00 p.m. (before regular food intake in the dark phase). The controls were given 1% cellulose solution orally (5 ml/kg). Blood samples were taken every morning at 07.30 a.m. from tail veins for measurement of blood glucose and plasma insulin. The last blood samples of this part of the program were taken at 07.30 a. m. on the 15th day to measure blood glucose and plasma insulin. The oral drug therapy was continued for one week. Recording the day-night profile under the above therapy blood glucose (Δt=3 h) and plasma insulin (Δt=3-6 h) were monitored from day 16 (at 05.00 p.m. beginning) to day 17 (at 02.00 p.m. end).\nBlood glucose: Glucose levels were measured using the glucose oxidase procedure (Super G Glukosemeβgerät; Dr. Müller Gerätebau, Freital, Germany).\nPlasma insulin: Insulin concentrations were assayed by the antibody RIA method (LINCO Research, Inc. St. Charles, Mo., USA)."}, "[2]": {"tested_on": "Male Zucker fa/fa rats", "assay": "Day-night profile of glycemia and insulinemia, day 16 to day 17 of treatment", "description": "The parameters monitored were morning blood glucose and plasma insulin levels. […] An OGTT was performed finally on day 21 to monitor blood glucose and plasma insulin kinetics to assess changes in glucose tolerance. Glibenclamide (DAB 1996; R011150/33372) was donated by Berlin-Chemie (Berlin, Germany). Male Zucker (fa/fa) rats of the body weight class of 300 g were purchased from Charles River (Sulzfeld, Germany). […] Thereafter, the non-diabetic Wistar rats were treated orally once daily with RP (5 mg/kg b.w.) or TP (21.61 mg/kg b.w.) and the diabetic Zucker rats were treated orally once daily with RP (1 mg/kg b.w.) or TP (21.61 mg/kg b.w.) for 21 days at 05.00 p.m. (before regular food intake in the dark phase). The controls were given 1% cellulose solution orally (5 ml/kg). […] The oral drug therapy was continued for one week. […] Blood glucose: Glucose levels were measured using the glucose oxidase procedure (Super G Glukosemeβgerät; Dr. Müller Gerätebau, Freital, Germany). Plasma insulin: Insulin concentrations were assayed by the antibody RIA method (LINCO Research, Inc. St. Charles, Mo., USA)."}, "[3]": {"tested_on": "Male Zucker fa/fa rats", "assay": "OGTT after 21 days treatment: blood glucose and plasma insulin", "description": "The parameters monitored were morning blood glucose and plasma insulin levels. […] An OGTT was performed finally on day 21 to monitor blood glucose and plasma insulin kinetics to assess changes in glucose tolerance. Glibenclamide (DAB 1996; R011150/33372) was donated by Berlin-Chemie (Berlin, Germany). Male Zucker (fa/fa) rats of the body weight class of 300 g were purchased from Charles River (Sulzfeld, Germany). Repeated Dosing: 30 male non-diabetic Wistar and 30 male diabetic Zucker rats were randomized to RP (Reference Product: glibenclamide)-, TP- (jest Product: […] Thereafter, the non-diabetic Wistar rats were treated orally once daily with RP (5 mg/kg b.w.) or TP (21.61 mg/kg b.w.) and the diabetic Zucker rats were treated orally once daily with RP (1 mg/kg b.w.) or TP (21.61 mg/kg b.w.) for 21 days at 05.00 p.m. (before regular food intake in the dark phase). The controls were given 1% cellulose solution orally (5 ml/kg). […] The oral drug therapy was continued for one week. […] OGTT: A final OGTT was performed on day 21 with blood sampling from the tail vein. […] The latter were immediately centrifuged and the plasma fractions were stored at −20 ° C. for insulin analysis. Blood glucose: Glucose levels were measured using the glucose oxidase procedure (Super G Glukosemeβgerät; Dr. Müller Gerätebau, Freital, Germany). Plasma insulin: Insulin concentrations were assayed by the antibody RIA method (LINCO Research, Inc. St. Charles, Mo., USA)."}}, "data": [{"smiles": "COc1ccc(Cl)cc1C(=O)NCCc1ccc(S(=O)(=O)NC(=O)NC2CCCCC2)cc1", "note": "[glibenclamide, reference compound]", "values": [{"measurement": "Plasma insulin during 14 days in comparison to the control animals", "setting": "[1]; rat, in vivo", "value": "insulin increase to significantly higher concentrations than in control animals"}, {"measurement": "Increase of morning blood glucose", "setting": "[1]; within two days of therapy", "value": "about 1.5 mmol/l"}, {"measurement": "Mean blood glucose, day-night profile", "setting": "[2]; 02.00 p.m. next day, RP 1 mg/kg, TP 21.61 mg/kg orally once daily", "value": "7.34 ± 0.77", "unit": "mmol/L"}, {"measurement": "Plasma insulin, day-night profile", "setting": "[2]; 02.00 p.m. the next day", "value": "58.3 ± 7.3", "unit": "ng/mL"}, {"measurement": "Plasma insulin, day-night profile", "setting": "[2]; 05.00 a.m. (maximum)", "value": "76.3 ± 8.6", "unit": "ng/mL"}, {"measurement": "Plasma insulin, day-night profile", "setting": "[2]; 05.00 p.m., RP 1 mg/kg, TP 21.61 mg/kg orally once daily", "value": "50.0 ± 8.2", "unit": "ng/mL"}, {"measurement": "Plasma insulin, day-night profile", "setting": "[2]; 08.00 p.m.", "value": "57.3 ± 8.2", "unit": "ng/mL"}, {"measurement": "Mean blood glucose, day-night profile", "setting": "[2]; 11.00 a.m., RP 1 mg/kg, TP 21.61 mg/kg orally once daily", "value": "7.66 ± 1.22", "unit": "mmol/L"}, {"measurement": "Mean blood glucose, day-night profile", "setting": "[2]; 11.00 p.m., RP 1 mg/kg, TP 21.61 mg/kg orally once daily", "value": "14.80 ± 1.46", "unit": "mmol/L"}, {"measurement": "Mean blood glucose, day-night profile", "setting": "[2]; day 16, 05.00 p.m. before drug application, RP 1 mg/kg, TP 21.61 mg/kg orally once daily", "value": "7.96 ± 1.13", "unit": "mmol/L"}, {"measurement": "Increase of insulin output compared to the control", "setting": "[2]; obese Zucker rat, subchronic treatment", "value": 27, "unit": "%"}, {"measurement": "Glycemia at the last drug application", "setting": "[3]; 05.00 p.m., night before day 21", "value": "8.81 ± 1.21", "unit": "mmol/L"}, {"measurement": "G-AUC in comparison to the placebo application", "setting": "[3]; day 21", "value": "increased"}, {"measurement": "Blood glucose during OGTT", "setting": "[3]; day 21, 50 min", "value": "16.33 ± 0.98", "unit": "mmol/L"}, {"measurement": "Blood glucose during OGTT", "setting": "[3]; day 21, 80 min", "value": "16.24 ± 1.09", "unit": "mmol/L"}, {"measurement": "Blood glucose during OGTT", "setting": "[3]; day 21, 100 min", "value": "15.13 ± 0.76", "unit": "mmol/L"}, {"measurement": "Blood glucose during OGTT", "setting": "[3]; day 21, 120 min", "value": "14.81 ± 0.66", "unit": "mmol/L"}, {"measurement": "Glycemia after overnight fasting (basal, before OGTT)", "setting": "[3]; day 21, morning (07.30 a. m.)", "value": "4.91 ± 0.37", "unit": "mmol/L"}, {"measurement": "Fasting plasma insulin at the beginning of the OGTT", "setting": "[3]; day 21, overnight fasting, listed as RP", "value": "~12.5", "unit": "ng/mL"}, {"measurement": "Blood glucose increase after the glucose load", "setting": "[3]; day 21 OGTT", "value": "about 11 mmol"}, {"measurement": "Plasma insulin after a glucose stimulus", "setting": "[3]; day 21 OGTT", "value": "remained mostly unchanged"}, {"measurement": "Glucose area under the curve (G-AUC0-120 min)", "setting": "[3]; day 21 OGTT, CO-group 823±41", "value": "1096 ± 76", "unit": "mmol·min/L"}]}]}
